Measurements published in article PMC8004929, “Whole-Body Pharmacokinetics and Physiologically Based Pharmacokinetic Model for Monomethyl Auristatin E (MMAE)” (Journal of Clinical Medicine, 2021).
Where two headings read alike, the source gives them in different places. Square brackets hold non-standard residues; d marks the D form. Peptide text beside a SMILES is read from it. * marks the point of attachment. Dolaproine = CO[C@@H]([C@@H]1CCCN1)[C@@H](C)C(=O)O; Dil = CC[C@H](C)[C@H](NC)[C@@H](CC(=O)O)OC; X1 = C[C@@H](N*)[C@@H](O)c1ccccc1; NMeV = CN[C@H](C(=O)O)C(C)C

What was measured:
[1] = following free MMAE administration; cited from earlier work
Source text: Our results regarding the blood cell distribution of MMAE were not consistent with the literature. The MMAE blood-to-plasma ratio is reported to be 2 [4] and 1.53–8.65 [8] in different studies, following free MMAE administration. Whereas, a lower blood-to-plasma ratio has been observed when MMAE-conjugated ADCs were administrated.

[2] = system: CYP3A; conditions: in vivo and in vitro studies; cited from earlier work
Source text: The PBPK model of MMAE presented here can further be used to assess drug–drug interactions of MMAE containing ADCs. In vivo and in vitro studies indicate that MMAE is a substrate of CYP3A and P-glycoprotein [34]. As such, the polymorphism of CYP3A and P-glycoprotein may affect the PK of MMAE, and consequently the efficacy and toxicity of MMAE-conjugated ADCs. As such, the MMAE PBPK model can serve as a tool to explore drug interactions of ADCs.

[3] = cited from earlier work
Description: The PBPK model well captured the PK in plasma, tissues, and tumor simultaneously. CLint was estimated with good precision (%CV = 8.92), and the optimized value was 137 mL/h. […] About 80% of MMAE excretes via feces, and only 6% excretes via urine. Therefore, we assumed that MMAE was eliminated only via metabolism and biliary/fecal excretion from the liver. […] For the derivation of CLint based on in vitro data, the CLint, vitro were estimated using human hepatocyte (3 µL/min/10^6 cells) and human ...

[4] = system: tumor cells; conditions: cited from earlier work
Source text: Table 1 A glossary of literature-derived and estimated parameters used for the MMAE PBPK model. | column: Value

[5] = system: tumor cells; assay: Cell-level tumor disposition model parameters; set-up: species or system mice; conditions: Estimated by PBPK model
Source text: Characterization and prediction of MMAE concentration at the site of action (i.e., tumor) is essential to establish a reliable exposure–efficacy relationship. Therefore, a cell-level tumor disposition model was incorporated in the MMAE PBPK model. […] Both pathways also depended on the vascular density and tumor size (Equation (20)). MMAE in the tumor extracellular space can influx into the tumor cell and bind to the tubulin. The tubulin-bound MMAE can dissociate from the target and efflux from tumor intracellular space into the extracellular space.
Physiological parameters for mice were obtained from our previously published PBPK model. Radius of the tumor blood capillary ( Rcap ), average distance between two capillaries ( Rkrough ), tumor void volume for MMAE ( ε ), P, D, and efflux rate of MMAE from the cells ( kout ) were obtained from the literature. […] The estimated parameters included (1) permeability coefficient ( PSi) in all tissues except the intestines, thymus, and other compartments for which observed data were not available, (2) intrinsic hepatic clearance ( CLint ), and (3) nonspecific uptake rate of MMAE into cancer cells ( kin) . The model was fitted to the data using the maximum likelihood estimation method in ADAPT version 5 (Biomedical Simulations Resource, University of Southern California, Los Angeles, CA, USA), using the variance model shown in Equation (23). […]

[6] = bile-duct cannulated rat; cited from earlier work
Description: The scaling factors used were 135 ± 10 (10^6 cells/g) for hepatocytes and 41.9 ± 24.5 (mg/g) for microsome studies. Metabolic CL and non-metabolic (mostly biliary) CL were assumed to account for 40% and 60% of total CL. This assumption is based on a human mass balance study and a bile-duct cannulated rat study, which reported that ≈60% of MMAE is excreted unchanged in the bile. As such, the CLint extrapolated from in vitro study was 109–126 mL/min (hepatocyte) and 121–462 mL/min (microsome). The CLint approximated from our in vivo data was 146 mL/min using the convent ...

For `CC[C@H](C)[C@@H]([C@@H](CC(=O)N1CCC[C@H]1[C@H](OC)[C@@H](C)C(=O)N[C@H](C)[C@@H](O)c1ccccc1)OC)N(C)C(=O)[C@@H](NC(=O)[C@@H](NC)C(C)C)C(C)C` [MMAE, Monomethyl auristatin E] (H-[NMeV]V[Dil][Dolaproine]-X1), which blood-to-plasma ratio [1] is on record?
Its blood-to-plasma ratio is 2.

What about the “substrate of CYP3A” value [2] of the same molecule?
Its value is “substrate”.

And the “in vitro CLint (CLint, vitro)” value ([3]; human liver hepatocyte)?
The value was 3 µL/min/10^6 cells.

And the “in vitro CLint (CLint, vitro)” value ([3]; human liver microsome)?
The value was 24 µL/min/mg.

What about the “kout, first-order efflux rate of MMAE from intracellular to extracellular space” value [4] of the same molecule?
Its value is 0.046 h⁻¹.

And the “ε, tumor void volume for MMAE” value [4]?
The value was 0.44.

What about the “D, diffusion rate across the blood vessels” value ([4]; tumor) of the same molecule?
The value was 0.0104 cm^2/h.

What about the “kin, first-order influx rate of MMAE from extracellular to intracellular space” value [5] of the same molecule?
Its value is 0.185 h⁻¹.

And the “MMAE excreted unchanged in the bile” value [6]?
The value was “≈ 60%”.
